# Measurements published in US7320981B2, “Variolin derivatives as anti-cancer agents” (Pharma Mar, S.A., priority 2000, dated 2008).
# Like-named read-outs stand apart in the source and are kept apart here.
# Columns and labels:
# [1] = system: A-549; experiment: SRB cell growth/viability assay, A-549; settings: for GI50 / CC50: Homo sapiens, A549, 48 h
# Excerpt: (§1) A colorimetric type of assay, using sulforhodamine B (SRB) reaction has been adapted for a quantitative measurement of cell growth and viability: see Skehan, P. A. et al. J. Natl. Cancer Inst., 1990, 82, 1107-1112. This form of the assay employs 96 well cell culture microplates of 9 mm diameter (Faircloth, G. T.; Stewart, D. and Clement, J. J., Journal of Tissue and Culture Methods, 1983, 11, 201-205; Mosmann, T. Journal of Immunological Methods, 1983, 65, 55-63.).
# (§2) Most of the cell lines are obtained from American Type Culture Collection (ATCC) derived from different human cancer types. Cells are maintained in RPMI 1640 10% FBS, supplemented with 0.1 g/l penicillin and 0.1 g/l streptomycin sulfate and then incubated at 37° C., 5% CO2 and 98% humidity. For the experiments, cells were harvested from subconfluent cultures using trypsin and resuspended in fresh medium before plating.
# (§3) Cells are seeded in 96 well microtiter plates, at 5×10^3 cells per well in aliquots of 195 μl medium, and they are allowed to attach to the plate surface by growing in drug free medium for 18 hours. Afterward, samples are in aliquots of 5 pi in a ranging from 10 to 10-8 μg/ml dissolved in DMSO/EtOH (0.2% in PS buffer). After 48 hours exposure, the antitumour effect are measured by the SRB methodology: cells are fixed by adding 50 μl of cold 50% (w/v) trichloroacetic acid (TCA) and incubating for 60 minutes at 4° C. Plates are washed with deionized water and dried. 100 μl of SRB solution (0.4% w/v in 1% acetic acid) is added to each microtiter well and incubated for 10 minutes at room temperature. Unbound SRB is removed by washing with 1% acetic acid. Plates are air-dried and bound stain is solubilized with Tris buffer. Optical densities are read on an automated spectrophotometric plate reader at a single wavelength of 490 nm.
# (§4) The values for mean +/− SD of data from triplicate wells are calculated Some parameters for cellular responses can be calculated: […], TGI=total growth inhibition (cytostatic effect) and LC=cell killing (cytotoxic effect).
# [2] = system: HT-29; experiment: SRB cell growth/viability assay, HT-29; settings: for GI50 / CC50: Homo sapiens, HT-29, 48 h
# Excerpt: as §1, §2, §3, §4
# [3] = system: SW-620; experiment: SRB cell growth/viability assay, SW-620; settings: for GI50 / CC50: Homo sapiens, SW-620, 48 h; for GI50: read-out: GI50 (50% growth inhibition); for CC50: read-out: LC50 (50% net cell killing, cytotoxic effect)
# Excerpt: as §1, §2, §3, §4
# [4] = system: MEL-28; experiment: SRB cell growth/viability assay, MEL-28; settings: for GI50 / CC50: Homo sapiens, SK-MEL-28, 48 h; for GI50: read-out: GI50 (50% growth inhibition); for CC50: read-out: LC50 (50% net cell killing, cytotoxic effect)
# Excerpt: as §1, §2, §3, §4
# [5] = system: A498; experiment: SRB cell growth/viability assay, A498; settings: for GI50 / CC50: Homo sapiens, A498, 48 h; for GI50: read-out: GI50 (50% growth inhibition); for CC50: read-out: LC50 (50% net cell killing, cytotoxic effect)
# Excerpt: as §1, §2, §3, §4
# [6] = system: DU-145; experiment: SRB cell growth/viability assay, DU-145; settings: for GI50 / CC50: Homo sapiens, DU-145, 48 h; for GI50: read-out: GI50 (50% growth inhibition); for CC50: read-out: LC50 (50% net cell killing, cytotoxic effect)
# Excerpt: as §1, §2, §3, §4
# [7] = system: MCF-7; experiment: SRB cell growth/viability assay, MCF-7; settings: for GI50 / CC50: Homo sapiens, MCF7, 48 h; for GI50: read-out: GI50 (50% growth inhibition); for CC50: read-out: LC50 (50% net cell killing, cytotoxic effect)
# Excerpt: as §1, §2, §3, §4
# [8] = system: MB-231; experiment: SRB cell growth/viability assay, MB-231; settings: for GI50 / CC50: Homo sapiens; for GI50: read-out: GI50 (50% growth inhibition); for CC50: read-out: LC50 (50% net cell killing, cytotoxic effect)
# Excerpt: as §1, §2, §3, §4
# [9] = system: OVCAR-3; experiment: cells; assay type: cell-based
# Excerpt: Plates are washed with deionized water and dried.
# [10] = read-out: GI50 (50% growth inhibition)
# [11] = read-out: LC50 (50% net cell killing, cytotoxic effect)
structure (smiles),measurement,setting,value
"Nc1nccc(-c2c3c(O)ccnc3n3c(N)nccc23)n1 [Compound 1, Variolin B]","TGI (total growth inhibition, cytostatic effect)",[1]; 48 h,1.E−06 M
same,GI50,[1]; read-out: A-549 GI50,170 nM
same,CC50,[1]; read-out: A-549 LC50,170000 nM
same,GI50,[1]; [10],700 nM
same,CC50,[1]; [11],3000 nM
same,A-549 TGI,"[1]; Table 2, A-549, 48 hours exposure, SRB",6.8 10^−7 M
same,"TGI (total growth inhibition, cytostatic effect)",[2]; 48 h,1.E−06 M
same,GI50,[2]; [10],700 nM
same,GI50,[2]; read-out: HT-29 GI50,1000 nM
same,CC50,[2]; read-out: HT-29 LC50,> 170000 nM
same,CC50,[2]; [11],3000 nM
same,HT-29 TGI,"[2]; Table 2, HT-29, 48 hours exposure, SRB",1.7 10^−5 M
same,"TGI (total growth inhibition, cytostatic effect)",[3]; 48 h,3.E−07 M
same,GI50,[3],100 nM
same,CC50,[3],2000 nM
same,"TGI (total growth inhibition, cytostatic effect)",[4]; 48 h,1.E−06 M
same,GI50,[4],700 nM
same,CC50,[4],2000 nM
same,"TGI (total growth inhibition, cytostatic effect)",[5]; 48 h,3.E−07 M
same,GI50,[5],100 nM
same,CC50,[5],2000 nM
same,"TGI (total growth inhibition, cytostatic effect)",[6]; 48 h,3.E−07 M
same,GI50,[6],100 nM
same,CC50,[6],1000 nM
same,"TGI (total growth inhibition, cytostatic effect)",[7]; 48 h,2.E−06 M
same,GI50,[7],700 nM
same,CC50,[7],2000 nM
same,"TGI (total growth inhibition, cytostatic effect)",[8]; 48 h,1.E−06 M
same,GI50,[8]; 48 h,300 nM
same,CC50,[8]; 48 h,3000 nM
"Nc1nccc(-c2c3cccnc3n3c(N)nccc23)n1 [Compound 4, deoxyvariolin B]",GI50,[1]; [10],100 nM
same,CC50,[1]; [11],400 nM
same,"TGI (total growth inhibition, cytostatic effect)","[1]; Table 1, NSCL cell line A-549, 48 hours exposure, SRB",2.E−07 M
same,GI50,[2]; [10],70 nM
same,CC50,[2]; [11],10000 nM
same,"TGI (total growth inhibition, cytostatic effect)","[2]; Table 1, colon cell line HT-29, 48 hours exposure, SRB",2.E−07 M
same,GI50,[3],70 nM
same,CC50,[3],10000 nM
same,"TGI (total growth inhibition, cytostatic effect)","[3]; Table 1, colon cell line SW-620, 48 hours exposure, SRB",3.E−07 M
same,GI50,[4],70 nM
same,CC50,[4],300 nM
same,"TGI (total growth inhibition, cytostatic effect)","[4]; Table 1, melanoma cell line MEL-28, 48 hours exposure, SRB",1.E−07 M
same,CC50,"[9]; Homo sapiens, OVCAR-3, 48 h, read-out: LC50 (50% net cell killing, cytotoxic effect)",400 nM
same,GI50,"[9]; Homo sapiens, Table 1, ovary cell line OVCAR-3, 48 hours exposure, SRB, read-out: GI50 (50% growth inhibition)",100 nM
same,"TGI (total growth inhibition, cytostatic effect)","[9]; Table 1, ovary cell line OVCAR-3, 48 hours exposure, SRB",3.E−07 M
same,GI50,[5],70 nM
same,CC50,[5],700 nM
same,"TGI (total growth inhibition, cytostatic effect)","[5]; Table 1, kidney cell line A498, 48 hours exposure, SRB",2.E−07 M
same,GI50,[6],100 nM
same,CC50,[6],7000 nM
same,"TGI (total growth inhibition, cytostatic effect)","[6]; Table 1, prostate cell line DU-145, 48 hours exposure, SRB",3.E−07 M
same,GI50,[7],100 nM
same,CC50,[7],4000 nM
same,"TGI (total growth inhibition, cytostatic effect)","[7]; Table 1, breast cell line MCF-7, 48 hours exposure, SRB",3.E−07 M
same,GI50,[8]; 48 h,70 nM
same,CC50,[8]; 48 h,30000 nM
same,"TGI (total growth inhibition, cytostatic effect)","[8]; Table 1, breast cell line MB-231, 48 hours exposure, SRB",3.E−07 M
"CS(=O)(=O)c1nccc(-c2c3cccnc3n3c(N)nccc23)n1 [Compound 6, sulfonyldeoxyvariolin]",GI50,[1]; read-out: A-549 GI50,4400 nM
same,CC50,[1]; read-out: A-549 LC50,> 150000 nM
same,GI50,[2]; read-out: HT-29 GI50,29000 nM
same,CC50,[2]; read-out: HT-29 LC50,> 150000 nM
CSc1nccc(-c2c3cccnc3n3c(SC)nccc23)n1 [Compound 19],GI50,[1]; read-out: A-549 GI50,5900 nM
same,CC50,[1]; read-out: A-549 LC50,29000 nM
same,GI50,[2]; read-out: HT-29 GI50,5900 nM
same,CC50,[2]; read-out: HT-29 LC50,29000 nM
"C[S+]([O-])c1nccc(-c2c3cccnc3n3c(N)nccc23)n1 (centres unmarked) [Compound 22, sulfinyldeoxyvariolin]",GI50,[1]; read-out: A-549 GI50,1200 nM
same,CC50,[1]; read-out: A-549 LC50,92000 nM
same,GI50,[2]; read-out: HT-29 GI50,920 nM
same,CC50,[2]; read-out: HT-29 LC50,> 150000 nM
"CC(=O)N(C(C)=O)c1nccc(-c2c3cccnc3n3c(N)nccc23)n1 [Compound 23a, N′-bisacetyldeoxyvariolin]",GI50,[1]; read-out: A-549 GI50,280 nM
same,CC50,[1]; read-out: A-549 LC50,2800 nM
same,GI50,[2]; read-out: HT-29 GI50,140 nM
same,CC50,[2]; read-out: HT-29 LC50,2800 nM
"CC(=O)Nc1nccc2c(-c3ccnc(N(C(C)=O)C(C)=O)n3)c3cccnc3n12 [Compound 23b, N′-bisacetyl-N-acetyldeoxyvariolin]",GI50,[1]; read-out: A-549 GI50,740 nM
same,CC50,[1]; read-out: A-549 LC50,7400 nM
same,GI50,[2]; read-out: HT-29 GI50,100 nM
same,CC50,[2]; read-out: HT-29 LC50,2500 nM
"CC(=O)N(C(C)=O)c1nccc(-c2c3cccnc3n3c(N(C(C)=O)C(C)=O)nccc23)n1 [Compound 23c, N′-bisacetyl-N-bisacetyldeoxyvariolin]",GI50,[1]; read-out: A-549 GI50,2200 nM
same,CC50,[1]; read-out: A-549 LC50,22000 nM
same,GI50,[2]; read-out: HT-29 GI50,1100 nM
same,CC50,[2]; read-out: HT-29 LC50,18000 nM
"CC(=O)Nc1nccc(-c2c3cccnc3n3c(N)nccc23)n1 [Compound 23d, N′-acetyldeoxyvariolin]",GI50,[1]; read-out: A-549 GI50,630 nM
same,CC50,[1]; read-out: A-549 LC50,3200 nM
same,GI50,[2]; read-out: HT-29 GI50,630 nM
same,CC50,[2]; read-out: HT-29 LC50,3200 nM
"CC(=O)Nc1nccc(-c2c3cccnc3n3c(NC(C)=O)nccc23)n1 [Compound 23e, N′-acetyl-N-acetyldeoxyvariolin]",GI50,[1]; read-out: A-549 GI50,2200 nM
same,CC50,[1]; read-out: A-549 LC50,28000 nM
same,GI50,[2]; read-out: HT-29 GI50,5500 nM
same,CC50,[2]; read-out: HT-29 LC50,> 28000 nM
